Data as given in patent US4577016A, “Process for the preparation of penem derivatives” (Farmitalia Carlo Erba S.p.A., priority 1982, dated 1986).
Where a name gives a salt, the structure may show the parent alone.

Tests used:
Type in all cases: cell-based
Gram-positive bacteria = test: activity against Gram-positive bacteria; settings: in words
Escherichia coli 1507 E = test: activity against Escherichia coli 1507 E; settings: in words
Escherichia coli TEM = test: activity against Escherichia coli TEM; settings: in words
[1] = tested on: Klebsiella pneumoniae ATCC 10031; test: activity against Klebsiella pneumoniae ATCC 10031; settings: in words
Proteus vulgaris X 20 = test: activity against Proteus vulgaris X 20; settings: in words
Gram-negative bacteria = test: minimal inhibiting concentrations against Gram-negative bacteria; settings: in words
Streptococcus pyogenes = test: minimal inhibiting concentration against Streptococcus pyogenes; settings: sodium salt
Streptococcus pneumoniae = test: minimal inhibiting concentration against Streptococcus pneumoniae; settings: sodium salt
[2] = tested on: penicillinase producer Staphylococcus aureus; test: minimal inhibiting concentration against penicillinase producer Staphylococcus aureus; settings: sodium salt
[3] = tested on: penicillinase non-producer Staphylococcus aureus; test: minimal inhibiting concentration against penicillinase non-producer Staphylococcus aureus; settings: sodium salt

C[C@@H](O)[C@H]1C(=O)N2C(C(=O)O)=C(CSc3ccc4nnnn4n3)S[C@H]12 [(5R,6S)-6-[1(R)-hydroxyethyl]-2-{tetrazolo[1,5-b]pyridazin-6-yl}-thiomethyl-penem-3-carboxylic acid]
activity against Gram-positive bacteria (Gram-positive bacteria): particularly active

C[C@@H](O)[C@H]1C(=O)N2C(C(=O)O)=C(CSc3nc(=O)c(O)nn3C)S[C@H]12 [(5R,6S)-6-[1(R)-hydroxyethyl]-2-(2-methyl-5-oxo-6-hydroxy-2,5-dihydro-1,2,4-triazin-3-yl)-thiomethyl-penem-3-carboxylic acid, disodium salt]
activity against Gram-negative bacteria (Escherichia coli 1507 E): particularly favourable activity | activity against Gram-negative bacteria (Escherichia coli TEM): particularly favourable activity | activity against Gram-negative bacteria [1]: particularly favourable activity | activity against Gram-negative bacteria (Proteus vulgaris X 20): particularly favourable activity

C[C@@H](O)[C@H]1C(=O)N2C(C(=O)O)=C(CSc3nnnn3C)S[C@H]12 [(5R,6S)-6-[1(R)-hydroxyethyl]-2-[1-methyl-1,2,3,4-tetrazol-5-yl)-thiomethyl]-penem-3-carboxylic acid]
minimal inhibiting concentrations against Gram-positive bacteria (Gram-positive bacteria): particularly favourable values | minimal inhibiting concentrations against Gram-negative bacteria (Gram-negative bacteria): particularly favourable values

C[C@@H](O)[C@H]1C(=O)N2C(C(=O)O)=C(CSc3nnc(SCC(=O)O)s3)S[C@H]12 [(5R,6S)-6-[1(R)-hydroxyethyl]-2-(5-carboxymethylthio-1,3,4-thiadiazol-2-yl)-thiomethyl-penem-3-carboxylic acid]
minimal inhibiting concentrations against Gram-positive bacteria (Gram-positive bacteria): particularly favourable values | minimal inhibiting concentrations against Gram-negative bacteria (Gram-negative bacteria): particularly favourable values

C[C@@H](O)[C@H]1C(=O)N2C(C(=O)O)=C(CSc3nnnn3CCC(N)=O)S[C@H]12 [(5R,6S)-6-[1(R)-hydroxyethyl]-2-[1-(2-aminocarbonylethyl)-1,2,3,4-tetrazol-5-yl]-thiomethyl-penem-3-carboxylic acid]
minimal inhibiting concentrations against Gram-positive bacteria (Gram-positive bacteria): particularly favourable values | minimal inhibiting concentrations against Gram-negative bacteria (Gram-negative bacteria): particularly favourable values

C[C@@H](O)[C@H]1C(=O)N2C(C(=O)O)=C(CSc3ccc4nnnn4n3)S[C@H]12 [Sodium(5R,6S)-6-[1(R)-hydroxyethyl]-2-(tetrazolo[1,5-b]-pyridazin-6-yl)-thiomethyl-penem-3-carboxylate]
MIC (Streptococcus pyogenes): 2 ng/mL | MIC (Streptococcus pneumoniae): 2 ng/mL | MIC [2]: 4 ng/mL | MIC [3]: 4 ng/mL
